Tests used:
Assay type in all cases: cell-based
human TLR9 = biological target: T1, human TLR9 (Homo sapiens, UniProt Q9NR96); experiment: TLR9 inhibition reporter assay (HEK-Blue SEAP reporter, ODN2006 stimulation); settings: HEK-Blue cells overexpressing human TLR9, SEAP reporter, ODN2006 5 nM, 22 hour incubation
T1 construct: host or cells: HEK-Blue cells
T1 sequence (Q9NR96 26-1032): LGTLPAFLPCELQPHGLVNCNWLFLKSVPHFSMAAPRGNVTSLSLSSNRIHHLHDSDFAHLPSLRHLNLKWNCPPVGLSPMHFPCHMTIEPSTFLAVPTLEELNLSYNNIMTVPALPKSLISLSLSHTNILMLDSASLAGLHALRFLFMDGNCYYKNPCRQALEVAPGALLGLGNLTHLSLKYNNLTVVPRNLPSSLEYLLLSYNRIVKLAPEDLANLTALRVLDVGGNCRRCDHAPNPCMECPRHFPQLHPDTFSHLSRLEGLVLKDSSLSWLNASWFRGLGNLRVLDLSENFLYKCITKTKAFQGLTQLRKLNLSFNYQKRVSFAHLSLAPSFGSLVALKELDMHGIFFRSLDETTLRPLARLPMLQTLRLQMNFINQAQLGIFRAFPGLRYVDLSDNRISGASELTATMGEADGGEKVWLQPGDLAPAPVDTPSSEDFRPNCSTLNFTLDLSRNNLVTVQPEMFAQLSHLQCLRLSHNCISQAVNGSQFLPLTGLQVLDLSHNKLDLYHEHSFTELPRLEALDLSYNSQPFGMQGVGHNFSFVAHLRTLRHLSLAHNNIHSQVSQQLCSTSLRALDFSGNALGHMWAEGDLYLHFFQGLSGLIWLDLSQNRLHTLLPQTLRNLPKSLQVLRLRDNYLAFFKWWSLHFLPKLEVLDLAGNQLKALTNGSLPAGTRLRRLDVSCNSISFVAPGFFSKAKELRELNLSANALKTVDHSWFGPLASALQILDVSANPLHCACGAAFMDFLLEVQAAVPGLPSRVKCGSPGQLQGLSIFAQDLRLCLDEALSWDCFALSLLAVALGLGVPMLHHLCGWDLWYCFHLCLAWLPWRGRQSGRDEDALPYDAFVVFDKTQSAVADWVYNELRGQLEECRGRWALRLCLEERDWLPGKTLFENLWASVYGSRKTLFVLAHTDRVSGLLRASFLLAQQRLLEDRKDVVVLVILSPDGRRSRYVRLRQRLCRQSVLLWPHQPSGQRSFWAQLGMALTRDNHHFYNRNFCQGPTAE
Summary of the method: (§1)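 Compound treatment: 30 min, RT, 0.05 nM–50 μM final. Agonist: TLR7 gardiquimod 7.5 μM; TLR8 R848 15.9 μM; TLR9 ODN2006 5 nM. Incubation 22 h, 37 °C, 5% CO2. Readout SEAP, HEK-Blue Detection.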

human TLR8 = biological target: T2, human TLR8 (Homo sapiens, UniProt Q9NR97); experiment: TLR8 inhibition reporter assay (HEK-Blue SEAP reporter, R848 stimulation); settings: HEK-Blue cells overexpressing human TLR8, SEAP reporter, R848 15.9 μM, 22 hour incubation
T2 construct: host or cells: HEK-Blue cells
T2 sequence (Q9NR97 27-1041): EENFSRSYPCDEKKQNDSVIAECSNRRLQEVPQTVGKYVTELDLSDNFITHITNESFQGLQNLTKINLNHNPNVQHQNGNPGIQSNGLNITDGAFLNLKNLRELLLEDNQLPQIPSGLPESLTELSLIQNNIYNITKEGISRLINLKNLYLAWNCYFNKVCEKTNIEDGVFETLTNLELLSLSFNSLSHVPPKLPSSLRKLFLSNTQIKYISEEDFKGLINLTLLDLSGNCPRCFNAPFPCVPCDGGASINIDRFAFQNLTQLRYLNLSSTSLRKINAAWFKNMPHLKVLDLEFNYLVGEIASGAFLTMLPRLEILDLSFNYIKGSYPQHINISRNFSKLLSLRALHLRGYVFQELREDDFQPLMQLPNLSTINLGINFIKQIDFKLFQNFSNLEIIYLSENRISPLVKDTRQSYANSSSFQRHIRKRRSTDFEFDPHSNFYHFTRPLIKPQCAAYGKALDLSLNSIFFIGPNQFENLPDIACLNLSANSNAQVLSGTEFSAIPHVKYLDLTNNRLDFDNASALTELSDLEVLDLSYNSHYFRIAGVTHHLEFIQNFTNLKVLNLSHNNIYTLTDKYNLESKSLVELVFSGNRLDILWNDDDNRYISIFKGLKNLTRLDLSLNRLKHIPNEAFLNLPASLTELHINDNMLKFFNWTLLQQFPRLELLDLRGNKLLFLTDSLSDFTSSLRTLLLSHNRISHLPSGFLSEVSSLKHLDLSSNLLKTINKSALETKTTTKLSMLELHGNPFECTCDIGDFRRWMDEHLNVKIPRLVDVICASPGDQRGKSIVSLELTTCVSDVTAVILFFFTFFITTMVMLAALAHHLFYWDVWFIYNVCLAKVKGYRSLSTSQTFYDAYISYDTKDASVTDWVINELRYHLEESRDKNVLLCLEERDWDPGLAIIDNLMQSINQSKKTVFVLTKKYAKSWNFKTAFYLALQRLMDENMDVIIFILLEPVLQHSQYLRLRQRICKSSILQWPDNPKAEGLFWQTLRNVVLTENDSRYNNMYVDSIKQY
Summary of the method: as §1

human TLR7 = biological target: T3, human TLR7 (Homo sapiens, UniProt Q9NYK1); experiment: TLR7 inhibition reporter assay (HEK-Blue SEAP reporter, gardiquimod stimulation); settings: HEK-Blue cells overexpressing human TLR7, SEAP reporter, gardiquimod 7.5 μM, 22 hour incubation
T3 construct: host or cells: HEK-Blue cells
T3 sequence (Q9NYK1 27-1049): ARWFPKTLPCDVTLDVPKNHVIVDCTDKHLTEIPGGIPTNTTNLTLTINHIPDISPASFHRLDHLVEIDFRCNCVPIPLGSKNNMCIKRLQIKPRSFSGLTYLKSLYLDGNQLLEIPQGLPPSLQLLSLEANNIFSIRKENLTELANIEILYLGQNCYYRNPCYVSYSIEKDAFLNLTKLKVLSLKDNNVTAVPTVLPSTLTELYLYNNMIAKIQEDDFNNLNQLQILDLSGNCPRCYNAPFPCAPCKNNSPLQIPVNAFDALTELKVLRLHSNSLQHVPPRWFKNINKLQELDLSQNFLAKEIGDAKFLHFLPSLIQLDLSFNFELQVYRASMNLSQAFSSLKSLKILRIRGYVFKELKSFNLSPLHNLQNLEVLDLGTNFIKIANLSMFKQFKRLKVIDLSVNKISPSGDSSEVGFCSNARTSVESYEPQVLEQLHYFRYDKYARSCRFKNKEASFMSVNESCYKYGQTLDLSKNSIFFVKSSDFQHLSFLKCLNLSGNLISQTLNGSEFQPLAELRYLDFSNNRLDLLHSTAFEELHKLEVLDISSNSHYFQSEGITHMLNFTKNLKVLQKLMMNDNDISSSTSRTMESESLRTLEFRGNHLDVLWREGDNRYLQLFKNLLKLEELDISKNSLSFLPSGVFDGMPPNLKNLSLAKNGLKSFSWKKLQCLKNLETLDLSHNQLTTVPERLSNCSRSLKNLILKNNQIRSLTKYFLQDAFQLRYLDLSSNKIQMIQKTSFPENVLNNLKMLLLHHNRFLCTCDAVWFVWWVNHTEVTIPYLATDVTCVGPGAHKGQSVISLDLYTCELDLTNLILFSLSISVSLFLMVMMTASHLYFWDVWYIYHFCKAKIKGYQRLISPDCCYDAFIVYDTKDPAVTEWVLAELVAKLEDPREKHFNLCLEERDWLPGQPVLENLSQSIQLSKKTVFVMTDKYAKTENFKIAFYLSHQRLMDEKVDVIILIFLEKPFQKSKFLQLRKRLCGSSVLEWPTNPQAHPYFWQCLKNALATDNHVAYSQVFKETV
Summary of the method: as §1

IC50 (human TLR9)	IC50 (human TLR8)	IC50 (human TLR7)	Compound
8510 nM	25.9 nM	290 nM	Cc1c(-c2[nH]c3ccc(C4CCN(CC(=O)N(C)C)CC4)cc3c2C(C)C)nn(C)c(=O)c1C [Example 130, 2-(4-(3-isopropyl-2-(1,4,5-trimethyl-6-oxo-1,6-dihydropyridazin-3-yl)-1H-indol-5-yl)piperidin-1-yl)-N,N-dimethylacetamide]
16200 nM	33.4 nM	245 nM	CNC(=O)CN1CCC(c2ccc3[nH]c(-c4nn(C)c(=O)c(C)c4C)c(C(C)C)c3c2)CC1 [Example 131, 2-(4-(3-isopropyl-2-(1,4,5-trimethyl-6-oxo-1,6-dihydropyridazin-3-yl)-1H-indol-5-yl)piperidin-1-yl)-N-methylacetamide]
25500 nM	15.1 nM	9 nM	CCn1cc(-c2[nH]c3ccc(C4CCN(CC(=O)NC)CC4)cc3c2C(C)C)cc(C)c1=O [Example 132, 2-(4-(2-(1-ethyl-5-methyl-6-oxo-1,6-dihydropyridin-3-yl)-3-isopropyl-1H-indol-5-yl)piperidin-1-yl)-N-methylacetamide]
14900 nM	6.2 nM	24.1 nM	CCn1cc(-c2[nH]c3ccc(C4CCN(CC(=O)N(C)C)CC4)cc3c2C(C)C)cc(C)c1=O [Example 133, 2-(4-(2-(1-ethyl-5-methyl-6-oxo-1,6-dihydropyridin-3-yl)-3-isopropyl-1H-indol-5-yl)piperidin-1-yl)-N,N-dimethylacetamide]
3460 nM	8.7 nM	11.9 nM	Cc1c(-c2[nH]c3ccc(C4CCN(CC(=O)N(C)C)CC4)cc3c2C(C)C)cn(C)c(=O)c1C [Example 134, 2-(4-(3-isopropyl-2-(1,4,5-trimethyl-6-oxo-1,6-dihydropyridin-3-yl)-1H-indol-5-yl)piperidin-1-yl)-N,N-dimethylacetamide]
19000 nM	5.6 nM	5.3 nM	CNC(=O)CN1CCC(c2ccc3[nH]c(-c4cn(C)c(=O)c(C)c4C)c(C(C)C)c3c2)CC1 [Example 135, 2-(4-(3-isopropyl-2-(1,4,5-trimethyl-6-oxo-1,6-dihydropyridin-3-yl)-1H-indol-5-yl)piperidin-1-yl)-N-methylacetamide]
1950 nM	13.6 nM	12 nM	CCn1cc(-c2[nH]c3ccc(C4CCN(CC(=O)N(C)C)CC4)cc3c2C(C)C)c(C)c(C)c1=O [Example 136, 2-(4-(2-(1-ethyl-4,5-dimethyl-6-oxo-1,6-dihydropyridin-3-yl)-3-isopropyl-1H-indol-5-yl)piperidin-1-yl)-N,N-dimethylacetamide]
11500 nM	12.3 nM	19.9 nM	CCn1cc(-c2[nH]c3ccc(C4CCN(CC(=O)NC)CC4)cc3c2C(C)C)c(C)c(C)c1=O [Example 137, 2-(4-(2-(1-ethyl-4,5-dimethyl-6-oxo-1,6-dihydropyridin-3-yl)-3-isopropyl-1H-indol-5-yl)piperidin-1-yl)-N-methylacetamide]
7610 nM	5.2 nM	17.5 nM	Cc1cc(-c2[nH]c3ccc(C4CCN(CC(=O)N(C)C)CC4)cc3c2C(C)C)c(C)n(C)c1=O [Example 138, 2-(4-(3-isopropyl-2-(1,2,5-trimethyl-6-oxo-1,6-dihydropyridin-3-yl)-1H-indol-5-yl)piperidin-1-yl)-N,N-dimethylacetamide]
10400 nM	4.2 nM	15.4 nM	CNC(=O)CN1CCC(c2ccc3[nH]c(-c4cc(C)c(=O)n(C)c4C)c(C(C)C)c3c2)CC1 [Example 139, 2-(4-(3-isopropyl-2-(1,2,5-trimethyl-6-oxo-1,6-dihydropyridin-3-yl)-1H-indol-5-yl)piperidin-1-yl)-N-methylacetamide]
21900 nM	39.7 nM	47.8 nM	CNC(=O)CN1CCC(c2ccc3[nH]c(-c4cn(C)c(=O)c(OC)c4C)c(C(C)C)c3c2)CC1 [Example 140, 2-(4-(3-isopropyl-2-(5-methoxy-1,4-dimethyl-6-oxo-1,6-dihydropyridin-3-yl)-1H-indol-5-yl)piperidin-1-yl)-N-methylacetamide]
4460 nM	37.3 nM	27.9 nM	COc1c(C)c(-c2[nH]c3ccc(C4CCN(CC(=O)N(C)C)CC4)cc3c2C(C)C)cn(C)c1=O [Example 141, 2-(4-(3-isopropyl-2-(5-methoxy-1,4-dimethyl-6-oxo-1,6-dihydropyridin-3-yl)-1H-indol-5-yl)piperidin-1-yl)-N,N-dimethylacetamide]
7650 nM	95.4 nM	205 nM	CNC(=O)CN1CCC(c2ccc3[nH]c(-c4cc(OC)c(=O)n(C)c4C)c(C(C)C)c3c2)CC1 [Example 142, 2-(4-(3-isopropyl-2-(5-methoxy-1,2-dimethyl-6-oxo-1,6-dihydropyridin-3-yl)-1H-indol-5-yl)piperidin-1-yl)-N-methylacetamide]
